Test results taken from EP4800012A1, “COMPOUND ACTING AS PARP7 INHIBITOR” (Dovetree Medicines Unus, Inc., priority 2023, dated 2025).
Read-outs that look alike come from different tables or passages of the source.

Experiments:
PARP7 [1] = biological target: T1, PARP7 (Homo sapiens, UniProt Q7Z3E1); assay: PARP7 TR-FRET binding inhibition (displacement of probe RBN011147)
T1 construct: purchased BPS 80527
T1 sequence (Q7Z3E1 1-657): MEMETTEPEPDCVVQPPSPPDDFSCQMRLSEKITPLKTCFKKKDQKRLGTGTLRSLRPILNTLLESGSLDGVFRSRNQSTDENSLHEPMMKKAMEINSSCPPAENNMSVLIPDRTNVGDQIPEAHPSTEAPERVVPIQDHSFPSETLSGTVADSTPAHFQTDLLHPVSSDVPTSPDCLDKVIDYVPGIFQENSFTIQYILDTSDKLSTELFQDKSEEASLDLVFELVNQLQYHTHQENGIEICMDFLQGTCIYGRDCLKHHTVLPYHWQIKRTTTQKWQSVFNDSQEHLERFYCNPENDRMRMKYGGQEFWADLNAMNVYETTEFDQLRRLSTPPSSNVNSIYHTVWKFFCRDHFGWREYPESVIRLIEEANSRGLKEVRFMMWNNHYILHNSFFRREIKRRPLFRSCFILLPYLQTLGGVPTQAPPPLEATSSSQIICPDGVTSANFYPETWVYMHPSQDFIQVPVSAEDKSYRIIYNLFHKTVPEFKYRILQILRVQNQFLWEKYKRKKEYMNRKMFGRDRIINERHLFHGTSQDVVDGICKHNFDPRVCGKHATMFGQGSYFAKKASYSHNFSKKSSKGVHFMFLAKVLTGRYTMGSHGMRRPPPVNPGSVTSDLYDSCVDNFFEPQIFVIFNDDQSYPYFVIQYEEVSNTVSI
Procedure: The ability of the compound to substitute the probe RBN011147 (Wigle et al., 2020, Cell Chemical Biology 27, 877-887) was tested by a TR-FRET method, and IC50 was calculated to evaluate the binding ability of the compound to PARP7. […]

PARP7 [2] = biological target: T1, PARP7; assay: Inhibition of the compound on PARP7 protein activity (ADP-ribosylation, chemiluminescence); type: biochemical
NCI-H1373 cells = assay: Inhibition on NCI-H1373 cell proliferation (Cell-Titer-Glo); type: cell-based; details: Homo sapiens, read-out: NCI-H1373 cell proliferation inhibition IC50
Procedure: The inhibitory effect of the compound on PARP7 was evaluated by testing the inhibitory effect of the compound on NCI-H1373 cell proliferation.
NCI-H1373 cells (ATCC, CRL-5866) were cultured in a complete medium, namely, a RPMI-1640 medium (Gibco, 22400089) containing 10% fetal bovine serum (Corning, 35-081-CV).
Negative control wells and positive control wells were added with 50 nL DMSO (Sigma, D2650), respectively.
In "Day 0" detection plate, NCI-H1373 cells were seeded at a density of 600 cells/well (50 µL) in a complete medium into the Day 0 test wells of a 384-well detection plate (Grenier, 781091). Then, 25 µL of Cell-Titer-Glo reagent (Promega, G7573) was added to each well, followed by centrifugation at 1000 rpm at room temperature for 1 minute and incubation at room temperature under shaded conditions for 10 min. Chemiluminescence signals were collected using an Envision (Perkin Elmer, EnVision 2105) to obtain the average value of the Day 0 test values.
In "compound detection plate", NCI-H1373 cells were seeded at a density of 600 cells/well (50 µL) in a complete medium into the negative control wells and the compound detection wells of a 384-well detection plate (Grenier, 781091), and 50 µL of cell culture medium was added to the positive control wells, followed by centrifugation at 1000 rpm at room temperature for 1 minute and placing in a cell incubator at 37°C, 5% CO2 for incubation for 6 days. […] Chemiluminescence signals were collected using an Envision (Perkin Elmer, EnVision 2105). The test values for each compound well, negative control well, and positive control well were obtained.
The proliferation inhibition ratio formula is as follows: [formula]
The average value of the negative control = the average value of the Day 6 test values of each negative control well minus the average value of the Day 0 test values
The average value of the positive control = the average value of the Day 6 test values of each positive control well
The average value of the compound test = (the Day 6 test value of compound test well 1 + the Day 6 test value of compound test well 2)/2 - the average value of the Day 0 test values

[3] = TR-FRET, Biotin-labeled probe RBN011147; read-out: PARP7 binding inhibition IC50
[4] = Histone H1 coated plate, Biotin-Labeled NAD+, 2 h at room temperature, chemiluminescence; read-out: PARP7 activity inhibition IC50
[5] = 144 h, NCI-H1373 cells, incubation for 6 days, Cell-Titer-Glo

| SMILES | IC50 (PARP7 [1]; [3]) [µM] | IC50 (PARP7 [2]; [4]) [µM] | IC50 (NCI-H1373 cells; [5]) [µM] | IC50 (PARP7 [1]; read-out: PARP7 binding inhibition IC50; TR-FRET, Biotin-labeled probe RBN011147) [µM] | IC50 (PARP7 [2]; read-out: PARP7 activity inhibition IC50; Histone H1 coated plate, Biotin-Labeled NAD+, 2 h at room temperature, chemiluminescence) [µM] | IC50 (NCI-H1373 cells; NCI-H1373, 144 h) [µM] |
| --- | --- | --- | --- | --- | --- | --- |
| CC(CCCNC(=O)c1ccc(-c2ncc(CC3CCCC3)s2)cc1)Nc1cn[nH]c(=O)c1C(F)(F)F (stereo not drawn) [Example 43] | < 0.01 | < 0.003 | < 0.3 |  |  |  |
| CC(CCCNC(=O)c1ccc(-c2ncc(CC3CC3)s2)cc1)Nc1cn[nH]c(=O)c1C(F)(F)F (stereo not drawn) [Example 44] | < 0.01 | < 0.003 | 1 to 3 |  |  |  |
| CC(CCCNC(=O)c1ccc(-n2cccn2)nc1)Nc1cn[nH]c(=O)c1C(F)(F)F (stereo not drawn) [Example 45] | 0.01 to 0.03 | 0.003 to 0.01 | > 3 |  |  |  |
| C[C@@H](CCCNC(=O)c1ccc(-c2nccs2)cn1)Nc1cn[nH]c(=O)c1C(F)(F)F [Example 46] |  |  | > 3 | 0.01 to 0.03 | 0.01 to 0.03 |  |
| CC(CCCNC(=O)c1ccc(-c2ncn(C)n2)cc1)Nc1cn[nH]c(=O)c1C(F)(F)F (stereo not drawn) [Example 47] | 0.01 to 0.03 | 0.003 to 0.01 | > 3 |  |  |  |
| CC(CCCNC(=O)c1ccc(-n2cncn2)c(F)c1)Nc1cn[nH]c(=O)c1C(F)(F)F (stereo not drawn) [Example 48] | 0.03 to 0.1 | 0.01 to 0.03 | > 3 |  |  |  |
| CC(CCCN(C)C(=O)c1cnc(-c2ncc(C(F)(F)F)cn2)cn1)Nc1cn[nH]c(=O)c1C(F)(F)F (stereo not drawn) [Example 50] | 0.01 to 0.03 | < 0.003 | > 3 |  |  |  |
| CC(CCCNC(=O)c1cnc(-c2ncc(C(F)(F)F)cn2)cn1)Oc1cn[nH]c(=O)c1C(F)(F)F (stereo not drawn) [Example 51] | 0.03 to 0.1 | < 0.003 | < 0.3 |  |  |  |
| CC(CCCNC(=O)c1cnc(-c2ncc(C(F)(F)F)cn2)cn1)Nc1cc[nH]c(=O)c1C#N (stereo not drawn) [Example 52] | 0.03 to 0.1 | 0.01 to 0.03 | > 3 |  |  |  |
| Cc1c(CCC(=O)Nc2ccc(-c3ncc(C(F)(F)F)cn3)cc2F)c[nH]c(=O)c1C(F)(F)F [Example 53] | 0.03 to 0.1 | 0.01 to 0.03 | > 3 |  |  |  |
| O=C(NCCCC(Nc1cn[nH]c(=O)c1C(F)(F)F)C1CC1)c1cnc(-c2ncc(C(F)(F)F)s2)cn1 (stereo not drawn) [Example 54] | 0.01 to 0.03 | 0.003 to 0.01 | > 3 |  |  |  |
| O=C(NCCCC(Nc1cn[nH]c(=O)c1C(F)(F)F)C1CC1)c1ccc(-c2ncc(C(F)(F)F)s2)cc1 (stereo not drawn) [Example 55] | < 0.01 | < 0.003 | 1 to 3 |  |  |  |
| CC(CCCNC(=O)c1ccc(-c2ncc(N(C)C3CC3)s2)cc1)Nc1cn[nH]c(=O)c1C(F)(F)F (stereo not drawn) [Example 56] | < 0.01 | < 0.003 | 0.3 to 1 |  |  |  |
| CC(CCCNC(=O)c1ccc(-c2ncc(N(C)C)s2)cc1)Nc1cn[nH]c(=O)c1C(F)(F)F (stereo not drawn) [Example 57] | < 0.01 | 0.003 to 0.01 |  |  |  | 1 to 3 |
| CC(CCCNC(=O)c1ccc(-c2ncc(N3CCCCC3)s2)cc1)Nc1cn[nH]c(=O)c1C(F)(F)F (stereo not drawn) [Example 58] | < 0.01 | 0.003 to 0.01 | > 3 |  |  |  |
| CC(CCCNC(=O)c1ccc2c(=O)n(C)cnc2c1)Nc1cn[nH]c(=O)c1C(F)(F)F (stereo not drawn) [Example 59] | 0.03 to 0.1 | 0.03 to 0.1 | > 3 |  |  |  |
| CC(CCCNC(=O)c1ccc(-c2cscn2)nc1)Nc1cn[nH]c(=O)c1C(F)(F)F (stereo not drawn) [Example 60] | < 0.01 | < 0.003 | 0.3 to 1 |  |  |  |
| CC(CCCNC(=O)c1ccc(-n2cc(C(F)(F)F)cn2)cc1)Nc1cn[nH]c(=O)c1C(F)(F)F (stereo not drawn) [Example 61] | < 0.01 | < 0.003 | < 0.3 |  |  |  |
| CC(CCCNC(=O)c1ccc(-n2cccn2)c(F)c1)Nc1cn[nH]c(=O)c1C(F)(F)F (stereo not drawn) [Example 62] | 0.03 to 0.1 | 0.03 to 0.1 | > 3 |  |  |  |
| CC(CCCNC(=O)c1ccc(-c2ncc(N(C)C)cn2)cc1)Nc1cn[nH]c(=O)c1C(F)(F)F (stereo not drawn) [Example 63] | < 0.01 | < 0.003 | < 0.3 |  |  |  |
| CC(CCCNC(=O)c1ccc(-c2ccc(=O)n(C)n2)cc1)Nc1cn[nH]c(=O)c1C(F)(F)F (stereo not drawn) [Example 64] | > 0.1 | 0.01 to 0.03 | > 3 |  |  |  |
| COc1nc(-c2ccc(C(=O)NCCCC(C)Nc3cn[nH]c(=O)c3C(F)(F)F)cc2)cs1 (stereo not drawn) [Example 65] | 0.03 to 0.1 | 0.03 to 0.1 | > 3 |  |  |  |
| Cc1cc(=O)n(C)nc1-c1ccc(C(=O)NCCCC(C)Nc2cn[nH]c(=O)c2C(F)(F)F)cc1 (stereo not drawn) [Example 66] | > 0.1 | 0.03 to 0.1 | > 3 |  |  |  |
| CC(CCCNC(=O)c1ccc(-c2ncc(C#N)cc2F)cc1)Nc1cn[nH]c(=O)c1C(F)(F)F (stereo not drawn) [Example 67] | < 0.01 | < 0.003 | 0.3 to 1 |  |  |  |
| Cc1cc(-c2ccc(C(=O)NCCCC(C)Nc3cn[nH]c(=O)c3C(F)(F)F)cc2)ncc1C#N (stereo not drawn) [Example 68] | < 0.01 | < 0.003 | 0.3 to 1 |  |  |  |
| CC(CCCNC(=O)c1ncc(-c2ncc(N3CC(F)C3)cn2)cc1F)Nc1cn[nH]c(=O)c1C(F)(F)F (stereo not drawn) [Example 72] | < 0.01 | < 0.003 | 0.3 to 1 |  |  |  |
| CC(CCCNC(=O)c1ncc(-c2ncc(C(F)(F)F)cn2)cc1F)Nc1cn[nH]c(=O)c1C(F)(F)F (stereo not drawn) [Example 73] | < 0.01 | < 0.003 | 0.3 to 1 |  |  |  |
| CC(CCCNC(=O)c1ncc(-c2ncc(C(F)F)s2)cc1F)Nc1cn[nH]c(=O)c1C(F)(F)F (stereo not drawn) [Example 74] | < 0.01 | < 0.003 | > 3 |  |  |  |
| CC(CCCNC(=O)c1ncc(-c2ncc(C(F)(F)F)s2)cc1F)Nc1cn[nH]c(=O)c1C(F)(F)F (stereo not drawn) [Example 75] | < 0.01 | < 0.003 | < 0.3 |  |  |  |
| Cc1c(CCC(=O)Nc2ncc(-c3ncc(C(F)(F)F)cn3)cc2F)c[nH]c(=O)c1C(F)(F)F [Example 76] | 0.01 to 0.03 | 0.003 to 0.01 | > 3 |  |  |  |
